According to ChEMBL document CHEMBL1201861, “Genomics of Drug Sensitity in Cancer screening data, Wellcome Trust Sanger Institute”:

Key:
Experiment in all cases: cells
COLO-829 = format: functional, cell-based, Homo sapiens; details: Homo sapiens, COLO-829
Description: SANGER: Inhibition of human COLO-829 cell growth in a cell viability assay.

CaR-1 = format: functional, cell-based, Homo sapiens; details: Homo sapiens, CaR-1;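 also: growth inhibition of human CaR-1 cancer cells, read out with a cell viability assay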
Description: SANGER: Inhibition of human CaR-1 cell growth in a cell viability assay.

Calu-3 = format: functional, cell-based, Homo sapiens; details: Homo sapiens, Calu-3;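 also: growth inhibition of human Calu-3 cells, determined with a cell viability assay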
Description: SANGER: Inhibition of human Calu-3 cell growth in a cell viability assay.

ChaGo-K-1 = format: functional, cell-based; details: Homo sapiens;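 also: growth inhibition of ChaGo-K-1 cells, read out with a cell viability assay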
Description: SANGER: Inhibition of human ChaGo-K-1 cell growth in a cell viability assay.

D-542MG = format: functional, cell-based, Homo sapiens; details: Homo sapiens, D-542MG
Description: SANGER: Inhibition of human D-542MG cell growth in a cell viability assay.

DEL = format: functional, cell-based; details: Homo sapiens;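 also: growth inhibition of the human DEL cell line, read out with a cell viability assay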
Description: SANGER: Inhibition of human DEL cell growth in a cell viability assay.

DU-4475 = format: functional, cell-based; details: Homo sapiens
Description: SANGER: Inhibition of human DU-4475 cell growth in a cell viability assay.

HCT-116 = format: functional, cell-based, Homo sapiens; details: Homo sapiens, HCT-116
Description: SANGER: Inhibition of human HCT-116 cell growth in a cell viability assay.

HEC-1 = format: functional, cell-based, Homo sapiens; details: Homo sapiens, HEC-1;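 also: growth inhibition of the cell line, read out with a cell viability assay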
Description: SANGER: Inhibition of human HEC-1 cell growth in a cell viability assay.

HL-60 = format: functional, cell-based; details: Homo sapiens;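 also: growth inhibition of human HL-60 cells, read out with a cell viability assay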
Description: SANGER: Inhibition of human HL-60 cell growth in a cell viability assay.

HPAF-II = format: functional, cell-based, Homo sapiens; details: Homo sapiens, HPAF-II;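 also: growth inhibition of HPAF-II cells, read out with a cell viability assay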
Description: SANGER: Inhibition of human HPAF-II cell growth in a cell viability assay.

HT1197 = format: functional, cell-based, Homo sapiens, HT-1197; details: Homo sapiens, HT1197
Description: SANGER: Inhibition of human HT-1197 cell growth in a cell viability assay.

HT-144 = format: functional, cell-based, Homo sapiens; details: Homo sapiens, HT-144
Description: SANGER: Inhibition of human HT-144 cell growth in a cell viability assay.

JAR = format: functional, cell-based, Homo sapiens; details: Homo sapiens, JAR;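 also: growth inhibition of human JAR cells determined with a cell viability assay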
Description: SANGER: Inhibition of human JAR cell growth in a cell viability assay.

KARPAS-299 = format: functional, cell-based; details: Homo sapiens
Description: SANGER: Inhibition of human KARPAS-299 cell growth in a cell viability assay.

LNCaP-Clone-FGC = format: functional, cell-based, Homo sapiens; details: Homo sapiens, LNCaP-Clone-FGC
Description: SANGER: Inhibition of human LNCaP-Clone-FGC cell growth in a cell viability assay.

MZ2-MEL = format: functional, cell-based, Homo sapiens; details: Homo sapiens, MZ2-MEL;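 also: growth inhibition of MZ2-MEL cells read out with a cell viability assay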
Description: SANGER: Inhibition of human MZ2-MEL cell growth in a cell viability assay.

NCI-H1563 = format: functional, cell-based, Homo sapiens; details: Homo sapiens, NCI-H1563;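 also: growth inhibition of human NCI-H1563 cells, read out with a cell viability assay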
Description: SANGER: Inhibition of human NCI-H1563 cell growth in a cell viability assay.

NCI-H1693 = format: functional, cell-based, Homo sapiens; details: Homo sapiens, NCI-H1693;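 also: growth inhibition of the human cell line, read out with a cell viability assay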
Description: SANGER: Inhibition of human NCI-H1693 cell growth in a cell viability assay.

NCI-H1770 = format: functional, cell-based; details: Homo sapiens;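 also: growth inhibition of NCI-H1770 cells determined with a viability readout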
Description: SANGER: Inhibition of human NCI-H1770 cell growth in a cell viability assay.

NCI-H209 = format: functional, cell-based; details: Homo sapiens;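 also: growth inhibition of human NCI-H209 cells, measured by a cell viability assay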
Description: SANGER: Inhibition of human NCI-H209 cell growth in a cell viability assay.

NCI-H2228 = format: functional, cell-based, Homo sapiens; details: Homo sapiens, NCI-H2228;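 also: growth inhibition of human NCI-H2228 cells, read out by a cell viability assay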
Description: SANGER: Inhibition of human NCI-H2228 cell growth in a cell viability assay.

NCI-H23 = format: functional, cell-based, Homo sapiens; details: Homo sapiens, NCI-H23;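 also: cell viability assay measuring growth inhibition of NCI-H23 cells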
Description: SANGER: Inhibition of human NCI-H23 cell growth in a cell viability assay.

NCI-H358 = format: functional, cell-based, Homo sapiens; details: Homo sapiens, NCI-H358;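 also: growth inhibition of NCI-H358 human cells, read out with a cell viability assay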
Description: SANGER: Inhibition of human NCI-H358 cell growth in a cell viability assay.

NCI-H526 = format: functional, cell-based; details: Homo sapiens;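 also: growth inhibition of the human NCI-H526 cell line, measured by a cell viability assay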
Description: SANGER: Inhibition of human NCI-H526 cell growth in a cell viability assay.

NCI-H650 = format: functional, cell-based, Homo sapiens; details: Homo sapiens, NCI-H650;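 also: growth inhibition of NCI-H650 cells, read out by a viability assay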
Description: SANGER: Inhibition of human NCI-H650 cell growth in a cell viability assay.

NCI-H661 = format: functional, cell-based, Homo sapiens; details: Homo sapiens, NCI-H661;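 also: cell viability assay read-out, IC50 being the concentration that inhibits growth of the cells by half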
Description: SANGER: Inhibition of human NCI-H661 cell growth in a cell viability assay.

SNU1 = format: functional, cell-based; details: Homo sapiens;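 also: growth inhibition of human NCI-SNU-1 cells, measured with a cell viability assay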
Description: SANGER: Inhibition of human NCI-SNU-1 cell growth in a cell viability assay.

OVCAR-8 = format: functional, cell-based, Homo sapiens; details: Homo sapiens, OVCAR-8;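 also: growth inhibition of human OVCAR-8 cells, read out by a cell viability assay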
Description: SANGER: Inhibition of human OVCAR-8 cell growth in a cell viability assay.

PFSK-1 = format: functional, cell-based, Homo sapiens; details: Homo sapiens, PFSK-1;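 also: cell viability assay measuring how strongly compounds suppress growth of human PFSK-1 cells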
Description: SANGER: Inhibition of human PFSK-1 cell growth in a cell viability assay.

RMG-I = format: functional, cell-based, Homo sapiens; details: Homo sapiens, RMG-I;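 also: growth inhibition of human RMG-I cells, read out with a cell viability assay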
Description: SANGER: Inhibition of human RMG-I cell growth in a cell viability assay.

RVH-421 = format: functional, cell-based, Homo sapiens; details: Homo sapiens, RVH-421
Description: SANGER: Inhibition of human RVH-421 cell growth in a cell viability assay.

S-117 = format: functional, cell-based, Homo sapiens; details: Homo sapiens, S-117
Description: SANGER: Inhibition of human S-117 cell growth in a cell viability assay.

SK-HEP1 = format: functional, cell-based, Homo sapiens, SK-HEP-1; details: Homo sapiens, SK-HEP1;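 also: cell viability readout used to quantify reduction in proliferation of human SK-HEP-1 cells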
Description: SANGER: Inhibition of human SK-HEP-1 cell growth in a cell viability assay.

SK-LMS-1 = format: functional, cell-based, Homo sapiens; details: Homo sapiens, SK-LMS-1;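 also: growth inhibition of human SK-LMS-1 cells, read out with a cell viability assay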
Description: SANGER: Inhibition of human SK-LMS-1 cell growth in a cell viability assay.

SK-MEL-1 = format: functional, cell-based; details: Homo sapiens;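 also: growth inhibition of human SK-MEL-1 cells, read out by a cell viability assay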
Description: SANGER: Inhibition of human SK-MEL-1 cell growth in a cell viability assay.

SW872 = format: functional, cell-based, Homo sapiens; details: Homo sapiens, SW872;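 also: growth inhibition of SW872 cells, read out by a viability assay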
Description: SANGER: Inhibition of human SW872 cell growth in a cell viability assay.

T47D = format: functional, cell-based, Homo sapiens; details: Homo sapiens, T47D;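 also: growth inhibition of human T47D cells, measured with a cell viability assay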
Description: SANGER: Inhibition of human T47D cell growth in a cell viability assay.

A-431 = format: functional, cell-based, Homo sapiens; details: Homo sapiens, A-431;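 also: growth inhibition of A-431 cells, determined with a cell viability read-out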
Description: SANGER: Inhibition of human A431 cell growth in a cell viability assay.

ACHN = format: functional, cell-based, Homo sapiens; details: Homo sapiens, ACHN;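 also: cell viability read-out used to gauge how strongly growth of human ACHN cells is suppressed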
Description: SANGER: Inhibition of human ACHN cell growth in a cell viability assay.

ACN = format: functional, cell-based, Homo sapiens; details: Homo sapiens, ACN;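 also: growth inhibition of the human ACN cell line, read out via cell viability testing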
Description: SANGER: Inhibition of human ACN cell growth in a cell viability assay.

BB65-RCC = format: functional, cell-based, Homo sapiens; details: Homo sapiens, BB65-RCC;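 also: growth inhibition of the cell line, measured with a cell viability assay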
Description: SANGER: Inhibition of human BB65-RCC cell growth in a cell viability assay.

BEN = format: functional, cell-based, Homo sapiens; details: Homo sapiens, BEN;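 also: growth inhibition of the BEN cell line, read out with a cell viability assay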
Description: SANGER: Inhibition of human BEN cell growth in a cell viability assay.

C3A = format: functional, cell-based, Homo sapiens; details: Homo sapiens, C3A;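 also: growth inhibition of C3A human cells, quantified with a cell viability readout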
Description: SANGER: Inhibition of human C3A cell growth in a cell viability assay.

CAL-62 = format: functional, cell-based, Homo sapiens; details: Homo sapiens, CAL-62;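 also: growth inhibition of CAL-62 cells, read out with a cell viability assay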
Description: SANGER: Inhibition of human CAL-62 cell growth in a cell viability assay.

TE-5 = format: functional, cell-based, Homo sapiens; details: Homo sapiens, TE-5;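 also: inhibition of cell growth, read out by a cell viability assay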
Description: SANGER: Inhibition of human TE-5 cell growth in a cell viability assay.

TE-8 = format: functional, cell-based, Homo sapiens; details: Homo sapiens, TE-8;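 also: growth inhibition of TE-8 cells, measured with a cell viability readout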
Description: SANGER: Inhibition of human TE-8 cell growth in a cell viability assay.

UACC-257 = format: functional, cell-based, Homo sapiens; details: Homo sapiens, UACC-257
Description: SANGER: Inhibition of human UACC-257 cell growth in a cell viability assay.

UMUC3 = format: functional, cell-based, Homo sapiens; details: Homo sapiens, UMUC3;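 also: growth inhibition of human UM-UC-3 cells, read out with a cell viability assay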
Description: SANGER: Inhibition of human UM-UC-3 cell growth in a cell viability assay.

no-11 = format: functional, cell-based, Homo sapiens; details: Homo sapiens;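 also: growth inhibition of human NO-11 cells, read out with a cell viability assay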
Description: SANGER: Inhibition of human no-11 cell growth in a cell viability assay.

COLO-684 = format: functional, cell-based; details: Homo sapiens
Description: SANGER: Inhibition of human COLO-684 cell growth in a cell viability assay.

In the case of Nc1ccn([C@@H]2O[C@H](CO)[C@@H](O)[C@@H]2O)c(=O)n1 [CYTARABINE], the IC50 (COLO-829) is reported as 1860 nM, the IC50 (CaR-1) is reported as over 2 µM and the IC50 (Calu-3) is reported as over 2000 nM. It also gave an IC50 (ChaGo-K-1) of over 2 µM, an IC50 (D-542MG) of over 2 µM and an IC50 (DEL) of 875 nM. The IC50 (DU-4475) was 575 nM, the IC50 (HCT-116) was 245 nM and the IC50 (HEC-1) was 1790 nM. The IC50 (HL-60) was over 2000 nM, the IC50 (HPAF-II) was over 2 µM and the IC50 (HT1197) was over 2 µM. It also gave an IC50 (HT-144) of 1230 nM, an IC50 (JAR) of 338 nM and an IC50 (KARPAS-299) of over 2 µM. It also gave an IC50 (LNCaP-Clone-FGC) of 1310 nM, an IC50 (MZ2-MEL) of 1430 nM and an IC50 (NCI-H1563) of over 2 µM. The IC50 (NCI-H1693) was over 2 µM, the IC50 (NCI-H1770) was over 2 µM and the IC50 (NCI-H209) was over 2000 nM. It also gave an IC50 (NCI-H2228) of 597 nM, an IC50 (NCI-H23) of 1.2 µM and an IC50 (NCI-H358) of over 2 µM. The IC50 (NCI-H526) was over 2000 nM, the IC50 (NCI-H650) was over 2000 nM and the IC50 (NCI-H661) was 1.73 µM. It also gave an IC50 (SNU1) of 96.8 nM, an IC50 (OVCAR-8) of 211 nM and an IC50 (PFSK-1) of over 2 µM. It also gave an IC50 (RMG-I) of over 2 µM, an IC50 (RVH-421) of over 2 µM and an IC50 (S-117) of over 2 µM. For the same compound, the IC50 (SK-HEP1) was 556 nM, the IC50 (SK-LMS-1) was over 2000 nM and the IC50 (SK-MEL-1) was over 2 µM. It also gave an IC50 (SW872) of over 2000 nM, an IC50 (T47D) of over 2 µM and an IC50 (A-431) of over 2000 nM. For the same compound, the IC50 (ACHN) was 370 nM, the IC50 (ACN) was over 2000 nM and the IC50 (BB65-RCC) was 110 nM. For the same compound, the IC50 (BEN) was over 2 µM, the IC50 (C3A) was over 2 µM and the IC50 (CAL-62) was 710 nM. For the same compound, the IC50 (TE-5) was 381 nM, the IC50 (TE-8) was 0.219 µM and the IC50 (UACC-257) was over 2 µM. For the same compound, the IC50 (UMUC3) was 342 nM, the IC50 (no-11) was over 2 µM and the IC50 (COLO-684) was over 2 µM.
COc1cc([C@@H]2c3cc4c(cc3[C@@H](O[C@@H]3O[C@@H]5CO[C@@H](C)O[C@H]5[C@H](O)[C@H]3O)[C@H]3COC(=O)[C@H]23)OCO4)cc(OC)c1O [ETOPOSIDE] was tested, and the IC50 (COLO-829) was 1770 nM, the IC50 (CaR-1) was 8.6 µM and the IC50 (Calu-3) was 496 nM. The IC50 (ChaGo-K-1) was 3.79 µM, the IC50 (D-542MG) was over 16 µM and the IC50 (DEL) was 311 nM. It also gave an IC50 (DU-4475) of 96.2 nM, an IC50 (HCT-116) of 1010 nM and an IC50 (HEC-1) of 2370 nM. The IC50 (HL-60) was 2290 nM, the IC50 (HPAF-II) was over 16 µM and the IC50 (HT1197) was over 16 µM. For the same compound, the IC50 (HT-144) was 20.1 nM, the IC50 (JAR) was over 16000 nM and the IC50 (KARPAS-299) was over 16 µM. For the same compound, the IC50 (LNCaP-Clone-FGC) was over 16000 nM, the IC50 (MZ2-MEL) was 2180 nM and the IC50 (NCI-H1563) was 7.07 µM. The IC50 (NCI-H1693) was over 16 µM, the IC50 (NCI-H1770) was 3.87 µM and the IC50 (NCI-H209) was 1210 nM. For the same compound, the IC50 (NCI-H2228) was 2660 nM, the IC50 (NCI-H23) was 13.2 µM and the IC50 (NCI-H358) was 3.15 µM. The IC50 (NCI-H526) was 456 nM, the IC50 (NCI-H650) was 1710 nM and the IC50 (NCI-H661) was 4.34 µM. The IC50 (SNU1) was 1750 nM, the IC50 (OVCAR-8) was 1090 nM and the IC50 (PFSK-1) was over 16 µM. The IC50 (RMG-I) was over 16 µM, the IC50 (RVH-421) was over 16 µM and the IC50 (S-117) was over 16 µM. The IC50 (SK-HEP1) was 267 nM, the IC50 (SK-LMS-1) was 553 nM and the IC50 (SK-MEL-1) was over 16 µM. It also gave an IC50 (SW872) of 640 nM, an IC50 (T47D) of 11.7 µM and an IC50 (A-431) of 798 nM. For the same compound, the IC50 (ACHN) was 839 nM, the IC50 (ACN) was 79 nM and the IC50 (BB65-RCC) was 979 nM. It also gave an IC50 (BEN) of over 16 µM, an IC50 (C3A) of 7.93 µM and an IC50 (CAL-62) of 851 nM. It also gave an IC50 (TE-5) of 1180 nM, an IC50 (TE-8) of 8.75 µM and an IC50 (UACC-257) of over 16 µM. For the same compound, the IC50 (UMUC3) was 1150 nM, the IC50 (no-11) was 7.56 µM and the IC50 (COLO-684) was over 16 µM.
